# Reference: patent publication EP3019008B1, “USE OF AN ISOPROPANOL-CONTAINING SOLUTION TO COMBAT CALCIVIRIDAE” (Schülke & Mayr GmbH, priority 2013, dated 2015)
# Like-named read-outs stand apart in the source and are kept apart here.
# Key:
# murine norovirus [1] = assay: Modified test EN 1500, hygienic disinfection of the hands of test persons contaminated with virus; assay type: in vivo; conditions: 5 test persons
# Protocol: Method B:: Modified test EN 1500 "Hygienic disinfection of the hands"
# The test is based upon EN 1500 (practical test method for the hygienic disinfection of the hands).
# In the tests, the hands of test persons are contaminated with 3 ml of murine norovirus, namely both the hands of the test persons of the reference group and the hands of the test persons of the test group. A sample is then taken (1 min) before the disinfection. After that, the test persons of each group disinfect their hands with disinfection agent. The test persons of the reference group disinfect twice with 3 ml of a reference product in each case, the reference product being allowed to act for 30 sec and rubbed in after each disinfection. The test persons of the test group instead disinfect twice with 3 ml of the disinfection agent to be tested. After that, a sample is taken […] (1 min), both in the reference group and in the test group.
# The test persons of the respective group are then swapped over in a second test.
# murine norovirus [2] = conditions: highest concentration tested of 60% by volume, non-living surfaces, Magulski et al.; cited from earlier work
# [3] = tested on: murine norovirus, strain S 99 Berlin; assay: Quantitative suspension test of virucidal effect according to EN 14476 (low stressing); conditions: for log reduction at 0.7 %: Norwalk virus, read-out: reduction factor; for log10-TCID50 / 0·1 ml after ... min murine norovirus: reference inactivation, PBS
# Protocol: Method A:Quantitative suspension test of virucidal effect according to EN 14476: Murine norovirus (low stressing)
# Methodology:EN 14476:2005-04/A1:2006-10 and PrEN 14476:2011: Chemical disinfection agents and antiseptics - Quantitative suspension test of virucidal effect for chemical disinfection agents and antiseptics used in human medicine, Test methods and requirements (phase 2, stage 1)
# In order to achieve the concentration of 97%, 0·1 ml of the virus, 0.2 ml of the 5-fold concentrated stressing substance and 9.7 ml of the product are mixed. After the termination of the exposure time, the effect of the disinfection agent is stopped by dilution (or gel filtration) and a series of dilutions in accordance with the progression 1:10/ 1:100 / 1:1,000 etc. is applied in order to determine the residual virus content. The titration is carried out in the microtitre system on 96-well plates.
# Titration method: • Virus titration on cells as monolayers in 96-well microtitration plates. 0.5ml of product test solution is diluted with 4.5 ml of ice-cold DMEM + 2% FBS to a dilution of 10^-8. 100 µl of each dilution was pipetted into 6 wells of the microtitration plate. Method of terminating the effect of the product and reducing the cytotoxicity: • Gel filtration with MicroSpin columns and dilution to 10^-4 within 10 sec with ice-cold DMEM + 2% FBS
# The TCID50 was calculated in accordance with the method of Spearman and Kärber. m = xk + d/2−d∑pi [formula] • m = negative logarithm of the titre in relation to the test volume • Xk = logarithm of the smallest dilution stage in which all the test objects react positively • d = logarithm of the dilution factor • pi = observed reaction rate
# RF = log(viruscontrol)−log(testproduct) [formula] KRF = sqrt(((2Sm(control)))^2 + ((2Sm(residualtitre)))^2) [formula] • KRF = 95% confidence interval of the reduction factor • Sm = standard deviation of the logarithmized titre
# RAW cells ATCC TIB-71 = assay: Cytotoxicity control (CD50) of the EN 14476 suspension test; set-up: unit not given beside the values; conditions: reference inactivation, PBS
# Protocol: Virus control: The virus titre for the murine norovirus amounted to 7.50 ± 0.47 TCID50 / 0·1 ml and thus to 8.50 ± 0.47 TCID50 / ml. The demonstrable titre reduction thus amounted to ≥ 4.00 lg^10. […] Reference The reduction factor of 0.7% formaldehyde amounted to 2·33 log^10 inactivation after 30 min exposure time and to 3.17 log^10 after 60 min exposure time.
smiles,measurement,setting,value
"CCO [Ethanol 70% w/w, Ethanol]",Average after disinfection,murine norovirus [1]; 2 x 30 s with 3 ml each,3.02 log TCID50/ml
same,Average before disinfection,murine norovirus [1]; baseline before disinfection,5.6 log TCID50/ml
same,RF,"murine norovirus [1]; reduction factor, 2 x 30 s with 3 ml each",2.58 log TCID50/ml
CC(C)O [isopropanol],effectiveness compared with ethanol and n-propanol,murine norovirus [2],three decadic levels below the effectiveness of ethanol and n-propanol
"C=O [Formaldehyde 0·7% (V/V), Formaldehyde]",log reduction at 0.7 %,[3]; 0.5 h,2.33
same,log reduction at 0.7 %,[3]; 1 h,3.17
same,log10-TCID50 / 0·1 ml after ... min murine norovirus,[3]; residual titre after 5 min,6.33 ± 0.33 log10-TCID50 / 0·1 ml
same,log10-TCID50 / 0·1 ml after ... min murine norovirus,[3]; residual titre after 15 min,5.67 ± 0.54 log10-TCID50 / 0·1 ml
same,log10-TCID50 / 0·1 ml after ... min murine norovirus,[3]; residual titre after 30 min,5.17 ± 0.56 log10-TCID50 / 0·1 ml
same,log10-TCID50 / 0·1 ml after ... min murine norovirus,[3]; residual titre after 60 min,4.33 ± 0.33 log10-TCID50 / 0·1 ml
same,CD50,RAW cells ATCC TIB-71,≤ 3.5
